Assay results as given in US20040137023A1, “5-Cholesten-3beta, 25-diol-7-one, esters and ethers thereof, particularly for the treatment of dry skin and scalp” (L'OREAL, priority 2002, published 2004).

Test system: immortalized human sebocytes derived from the SZ95 line
Experiment: Lipogenesis in immortalized human sebocytes in culture (Nile red fluorescence, neutral lipids)
Assay type: cell-based
Conditions: for LIPID VARIATION (relative to the control): treatment for 2 days, 0.1% DMSO, Nile red 485-540 nm
Description: 5-Cholesten-3β,25-diol-7-one was tested, in comparison with 7-oxocholesterol and 25-hydroxy-cholesterol, on a model of immortalized human sebocytes in culture, derived from the SZ95 line described in Zouboulis, C. C., Seltmann, H., Neitzel, H. and Orfanos, C. E., Establishment and Characterization of an Immortalized Human Sebaceous Gland Cell Line, J. Invest. Dermatol., 113, 1011-1020 (1999).
The test consisted in measuring the amount of lipids produced by the sebocytes of the line (at confluence), in the presence or absence of active agents diluted in DMSO, such that the final amount of DMSO in the culture medium is 0.1%. After treatment for 2 days, the adherent cells are treated with Nile red (1 μg/ml). The lipid content is then quantified by measuring the fluorescence of the dye (excitation/emission pair: 485-540 nm for the neutral lipids).
The tests are performed in sixplicate and the experiment is repeated four times.
In parallel, proliferation tests (MUH) and cell viability tests (LDH) make it possible to check that the effects obtained are not associated with an appreciable change in these biological parameters.

| Structure (SMILES) | LIPID VARIATION (relative to the control) (test compound 10^−4 M) | LIPID VARIATION (relative to the control) (test compound 10^−5 M) | increase in the lipid content of the sebum (10^−5 M, same test) [%] |
| --- | --- | --- | --- |
| C[C@H](CCCC(C)(C)O)C1CCC2C3C(=O)C=C4C[C@@H](O)CC[C@]4(C)C3CC[C@@]21C (stereo partly drawn) [5-Cholesten-3β,25-diol-7-one] | +90% | +85% |  |
| CC(C)CCC[C@@H](C)[C@H]1CC[C@H]2[C@@H]3C(=O)C=C4C[C@@H](O)CC[C@]4(C)[C@H]3CC[C@]12C [7-Oxocholesterol, 7-oxocholesterol] | +20% |  |  |
| C[C@H](CCCC(C)(C)O)[C@H]1CC[C@H]2[C@@H]3CC=C4C[C@@H](O)CC[C@]4(C)[C@H]3CC[C@]12C [25-OH cholesterol, 25-hydroxy-cholesterol] | 0% |  |  |
| C[C@]12CC[C@H](O)CC1=CC[C@@H]1[C@@H]2CC[C@]2(C)C(=O)CC[C@@H]12 [DHEA] |  |  | 13 |
